Assay: wn = mass fraction of the nth substance listed
Conditions: Liquid, Pycnometric method, w2 = 0.5111

FC(F)C(F)(F)F [pentafluoroethane] + FCF
Conditions	mass density [kg/m3]
298.15 K, 28366 kPa	1185.5
299.15 K, 7469 kPa	1097.4
299.15 K, 7499 kPa	1097.4
299.15 K, 7541 kPa	1097.4
299.15 K, 29176 kPa	1185.2
299.15 K, 29179 kPa	1185.2
299.15 K, 29186 kPa	1185.4
300.15 K, 8097 kPa	1097.2
300.15 K, 8124 kPa	1097.2
300.15 K, 8166 kPa	1097.2
300.15 K, 29998 kPa	1185.1
300.15 K, 29999 kPa	1185.1
300.15 K, 30003 kPa	1185.2
301.15 K, 8725 kPa	1097.1
301.15 K, 8750 kPa	1097.1
301.15 K, 8791 kPa	1097.1
302.15 K, 9353 kPa	1096.9
302.15 K, 9377 kPa	1096.9
302.15 K, 9417 kPa	1096.9
303.15 K, 9980 kPa	1096.8
303.15 K, 10003 kPa	1096.8
303.15 K, 10042 kPa	1096.8
304.15 K, 10607 kPa	1096.6
304.15 K, 10629 kPa	1096.6
304.15 K, 10667 kPa	1096.7
305.15 K, 11234 kPa	1096.5
305.15 K, 11256 kPa	1096.5
305.15 K, 11292 kPa	1096.5
306.15 K, 11861 kPa	1096.4
306.15 K, 11881 kPa	1096.4
306.15 K, 11917 kPa	1096.4
307.15 K, 12487 kPa	1096.2
307.15 K, 12507 kPa	1096.2
307.15 K, 12541 kPa	1096.2
308.15 K, 13114 kPa	1096.1
308.15 K, 13133 kPa	1096.1
308.15 K, 13165 kPa	1096.1
309.15 K, 13740 kPa	1095.9
309.15 K, 13758 kPa	1095.9
309.15 K, 13790 kPa	1095.9
310.15 K, 14367 kPa	1095.8
310.15 K, 14384 kPa	1095.8
310.15 K, 14414 kPa	1095.8
311.15 K, 14992 kPa	1095.6
311.15 K, 15009 kPa	1095.7
311.15 K, 15038 kPa	1095.7
312.15 K, 15618 kPa	1095.5
312.15 K, 15634 kPa	1095.5
312.15 K, 15662 kPa	1095.5
313.15 K, 16243 kPa	1095.4
313.15 K, 16259 kPa	1095.4
313.15 K, 16286 kPa	1095.4
314.15 K, 16869 kPa	1095.2
314.15 K, 16883 kPa	1095.2
314.15 K, 16910 kPa	1095.3
315.15 K, 17493 kPa	1095.1
315.15 K, 17507 kPa	1095.1
315.15 K, 17534 kPa	1095.1
316.15 K, 18118 kPa	1095
316.15 K, 18131 kPa	1095
316.15 K, 18158 kPa	1095
317.15 K, 18743 kPa	1094.9
317.15 K, 18755 kPa	1094.9
317.15 K, 18781 kPa	1094.9
318.15 K, 19367 kPa	1094.7
318.15 K, 19379 kPa	1094.7
318.15 K, 19404 kPa	1094.8
319.15 K, 19990 kPa	1094.6
319.15 K, 20003 kPa	1094.6
319.15 K, 20027 kPa	1094.6
320.15 K, 20613 kPa	1094.5
320.15 K, 20627 kPa	1094.5
320.15 K, 20649 kPa	1094.5
321.15 K, 21236 kPa	1094.4
321.15 K, 21250 kPa	1094.4
321.15 K, 21272 kPa	1094.4
322.15 K, 21858 kPa	1094.2
322.15 K, 21873 kPa	1094.3
322.15 K, 21894 kPa	1094.3
323.15 K, 22480 kPa	1094.1
323.15 K, 22495 kPa	1094.1
323.15 K, 22516 kPa	1094.2
324.15 K, 23103 kPa	1094
324.15 K, 23117 kPa	1094
324.15 K, 23137 kPa	1094
325.15 K, 23725 kPa	1093.9
325.15 K, 23738 kPa	1093.9
325.15 K, 23758 kPa	1093.9
326.15 K, 24347 kPa	1093.8
326.15 K, 24361 kPa	1093.8
326.15 K, 24379 kPa	1093.8
327.15 K, 24970 kPa	1093.7
327.15 K, 24981 kPa	1093.7
327.15 K, 25000 kPa	1093.7
328.15 K, 25590 kPa	1093.6
328.15 K, 25601 kPa	1093.6
328.15 K, 25620 kPa	1093.6
